From US10286038B2, “Lysosome membrane protein 2 (LIMP-2) based peptides and related uses” (Northwestern University, priority 2016, dated 2019)

Columns and labels:
[1] = target: T1, recombinant N370S mutant GC (Homo sapiens, UniProt P04062, N409S); assay: peptide pulldown of recombinant N370S mutant GC; type: binding; conditions: cell-free system
T1 sequence (P04062 40-536 N409S): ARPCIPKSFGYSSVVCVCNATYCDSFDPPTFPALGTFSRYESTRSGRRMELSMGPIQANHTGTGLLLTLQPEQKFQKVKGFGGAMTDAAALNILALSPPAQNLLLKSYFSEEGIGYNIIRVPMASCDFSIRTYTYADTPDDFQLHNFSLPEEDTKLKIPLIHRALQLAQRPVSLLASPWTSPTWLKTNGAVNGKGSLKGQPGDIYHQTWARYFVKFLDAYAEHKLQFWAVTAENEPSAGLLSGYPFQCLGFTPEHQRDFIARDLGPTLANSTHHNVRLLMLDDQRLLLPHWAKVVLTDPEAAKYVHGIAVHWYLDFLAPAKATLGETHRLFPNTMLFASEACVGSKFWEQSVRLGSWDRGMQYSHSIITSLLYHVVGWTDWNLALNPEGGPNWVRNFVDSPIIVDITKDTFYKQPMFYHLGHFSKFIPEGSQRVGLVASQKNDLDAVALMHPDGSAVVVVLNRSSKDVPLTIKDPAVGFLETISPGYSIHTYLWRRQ
Method: For the pulldown of recombinant protein utilizing LIMP-2-derived peptides, 2 nmol of protein (GC, LAMAN and BSA) was incubated overnight at 4° C. with the ten-fold molecular amount (20 nmol) of biotinylated LIMP-2-derived peptides (helix 5, 3×D as well as TAT-peptides (see Table 1)) at neutral pH. The total incubation volume was 250 μl (50 mM NaPhosphate buffer, 150 mM NaCl, pH7). ‘High Capacity Streptavidin Beads’ (Thermo Fisher Scientific, Waltham, USA) were blocked with 1% BSA solution and equilibrated with the NaPhosphate buffer. For each pulldown 50 μl of beads were utilized and incubated with 200 μl enzyme/peptide mixture for 30 min. at room temperature. The remaining 50 μl of the enzyme/peptide samples were prepared for SDS-PAGE (INPUT fraction). After incubation of the beads with the enzyme/peptide mixture the samples were centrifuged for 1 min. at 1,500×g at 4° C. The supernatant was removed and stored at 4° C. (UNBOUND fraction). Subsequently, the beads were washed three times with NaPhosphate buffer followed by centrifugation at 4,000 rpm at room temperature. […] The INPUT and BOUND fractions of the pulldown experiments were loaded on a NuPAGE® Novex® 4-12% Bis-Tris gels (Thermo Fisher Scientific, Waltham, USA), subjected to electrophoresis and stained with coomassie (Brilliant Blue, R-250; BioRad). After destaining the gels were scanned.

[2] = system: α-synuclein in H4 cells stably overexpressing α-synuclein; conditions: doxycycline, 74 hrs post incubation, compared to 3×D control peptide
Method: For Western blotting 20-40 μg of protein was loaded on a 10% Tris-SDS (made in house) or 4-12% Bis-Tris/NuPAGE Novex gel system (Thermo Fisher Scientific), subjected to electrophoresis, and blotted on nitrocellulose or PVDF membranes [2 h at 4° C. and 0.85 ampere (A) constant]. Membranes were blocked in 5% (wt/vol) milk Tris-buffered saline (TBS-T, pH 7.4, 0.1% Tween-20), and primary antibodies were incubated overnight (for more details on antibody dilutions see Table 4). PVDF membranes for α-synuclein detection were postfixed in 0.4% paraformaldehyde (PFA) (Polysciences Inc.) for 20 min after blotting. Signals were normalized to the respective loading controls [actin, neuronal-specific enolase (NSE), or GAPDH] […] Primary antibodies were incubated overnight at 4° C. After three washing steps in TBS-T the membranes were incubated for 1 h with the respective secondary antibody at room temperature. After the membrane was washed again three times with TBS-T, the signal of the antibody was detected using a chemiluminescence detection system (LAS4000; GE Healthcare Life Sciences) or by scanning on an infrared imager (Odyssey; LI-COR Biosciences).
The α-synuclein turn-over rate in the presence of the LIMP-2-derived peptides was assessed in human neuroglioma cells (H4), stably overexpressing α-synuclein. […]

[3] = target: T2, recombinant α-mannosidase (LAMAN) (Homo sapiens, UniProt O00754); assay: peptide pulldown of recombinant LAMAN; type: binding; conditions: neutral pH
T2 construct: purchased Zymenex, Hillerod, DK
T2 sequence (O00754 50-1011): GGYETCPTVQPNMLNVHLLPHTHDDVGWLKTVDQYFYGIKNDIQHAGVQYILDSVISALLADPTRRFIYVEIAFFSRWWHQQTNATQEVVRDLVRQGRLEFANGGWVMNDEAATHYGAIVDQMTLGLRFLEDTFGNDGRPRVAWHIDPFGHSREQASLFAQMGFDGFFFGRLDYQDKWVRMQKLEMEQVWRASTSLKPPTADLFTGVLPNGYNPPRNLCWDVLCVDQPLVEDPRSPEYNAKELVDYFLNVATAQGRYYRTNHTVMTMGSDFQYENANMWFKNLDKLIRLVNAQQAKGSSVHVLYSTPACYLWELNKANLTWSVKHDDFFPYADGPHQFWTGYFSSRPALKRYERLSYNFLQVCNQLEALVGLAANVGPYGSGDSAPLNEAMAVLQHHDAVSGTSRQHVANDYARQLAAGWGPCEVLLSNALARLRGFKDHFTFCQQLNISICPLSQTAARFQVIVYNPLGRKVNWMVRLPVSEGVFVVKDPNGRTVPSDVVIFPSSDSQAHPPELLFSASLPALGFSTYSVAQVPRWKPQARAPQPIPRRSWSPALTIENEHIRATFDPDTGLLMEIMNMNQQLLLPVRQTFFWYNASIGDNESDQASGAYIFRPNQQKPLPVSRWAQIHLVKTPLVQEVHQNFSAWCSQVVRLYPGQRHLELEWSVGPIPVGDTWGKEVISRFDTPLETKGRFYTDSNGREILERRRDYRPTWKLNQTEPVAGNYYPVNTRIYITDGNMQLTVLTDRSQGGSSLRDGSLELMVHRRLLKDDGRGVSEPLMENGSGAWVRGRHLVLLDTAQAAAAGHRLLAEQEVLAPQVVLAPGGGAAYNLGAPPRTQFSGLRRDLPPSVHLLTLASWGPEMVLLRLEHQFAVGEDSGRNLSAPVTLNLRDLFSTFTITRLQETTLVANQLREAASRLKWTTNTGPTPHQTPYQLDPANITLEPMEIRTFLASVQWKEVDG
Method: FIG. 6: Characterization of a helical LIMP-2-derived peptide. […] B) In vitro peptide pulldown assay: helix 5 peptides were incubated with recombinant LAMAN and bovine serum albumin (BSA). INPUT and BOUND fractions were loaded onto SDS-PAGE and proteins visualized by coomassie staining (CBB). C) Densitometry of LAMAN and BSA protein bound to peptide, normalized to protein fraction bound to beads only (buffer; n=2-3). D) and E) Activity assay of recombinant (D) GC and (E) LAMAN incubated with different excess molarities (1×-10×) of helix 5 peptide (n=β-5) and LIMP-2 ectodomain (n=4). GC activities were normalized and statistical analyses compared to 0 input of BSA/helix 5 peptide. F) Peptide-pulldown of GC constructs overexpressed in N2a cells with subsequent Western blot analysis (α-hGC) utilizing helix 5 and the 3×D control peptide as a negative binding control. G) Densitometry of GC protein bound to peptides; each construct is normalized to buffer only. H) Live-cell lysosomal GC activity of H4 cells after uptake of helix 5 and 3×D TAT peptides. GC activity was measures every 30 minutes up to 3.5 hours. Cells were treated with DMSO or the “lysosomal inhibitor” bafilomycinA1. […] Lysosomal activity is calculated by subtracting the AUC of DMSO with the AUC of bafilomycinA1 treated samples (n=4). […] GC activity was measured from 16-74 hours and is shown in mU/mg (n=3). […]

[4] = system: endogenous and overexpressed GC in cell lysates; conditions: after incubation with peptide
Method: The artificial substrates were dissolved in sodium citrate buffer (0.2 M Na-citrate, 0.4% BSA, pH 4.6). All activity assays were performed at acid pH.
Cell lysate protein (20-200 μg) or recombinant protein (0.2 nmol GC/N370S or LAMAN) was incubated with 100 μL of 10 mM artificial absorbent substrate (4-nitrophenyl β-D-glucopyranoside or 4-nitrophenyl-N-acetyl-β-D-glucosaminide). The samples were incubated at 37° C. for 2 h to measure GC activity or for 5 h to assess LAMAN activity. The reaction was stopped by applying 500-1,000 μL of stop solution (0.4 M glycine, pH 10.4), and the absorbance was measured in a clear 96-well plate at 405 nm in a plate reader (Synergy HT; BioTek). Enzyme activities of cellular lysates were normalized to protein concentration (expressed in milliunits per milligram) and are shown relative to buffer control. Enzyme activities of recombinant proteins are shown as milliunits per milligram or are stated relative to buffer control.

Substance | precipitation of recombinant N370S mutant GC [1] | α-synuclein levels [2] | interaction with recombinant α-mannosidase (LAMAN) [3] | enzymatic activity of endogenous and overexpressed GC in cell lysates [4]
Biotin-Ttds-KFERQLREIIEAMLKAYQQKLFVTHTVDEYGRKKRRQRRR [helix 5 TAT-peptide] | as efficiently as recombinant wild-type GC | significant reduction | – | –
Biotin-Ttds-LREIIEAMLKAYQQKLFVTHTVDE [helix 5 peptide] | – | – | no interaction | could also be increased
